Columns and labels:
Assay type in all cases: in vivo
[1] = system: spontaneous motor activity; assay: Action on spontaneous motor activity in the mouse (BOISSIER); conditions: po, 0.5 h, 30 minutes after administration, vs control, read-out: Percentage variation in motor activity; for change in vivo at 400 mg/kg: 400 mg/kg p.o.; for change in vivo at 500 mg/kg: 500 mg/kg p.o.; for change in vivo at 170 mg/kg: 170 mg/kg p.o.; for change in vivo at 250 mg/kg: 250 mg/kg p.o.; for change in vivo at 375 mg/kg: 375 mg/kg p.o.
Method: 2.1--Action on spontaneous motor activity in the mouse
30 minutes after administration per os of the test compounds, the mice (groups of 12 animals) are installed in individual cages in a BOISSIER activity measuring cupboard and move about before two photoelectric cells placed according to the rectangular coordinates. Meters register the movement during 20 minutes.

[2] = system: pentobarbital hypnosis time; assay: Action on the pentobarbital hypnosis time in the mouse; conditions: po, 0.5 h, 30 minutes before pentobarbital 50 mg/kg i.v., vs control, read-out: Percentage variation in pentobarbital hypnosis time; for change in vivo at 400 mg/kg: 400 mg/kg p.o.; for change in vivo at 500 mg/kg: 500 mg/kg p.o.; for change in vivo at 170 mg/kg: 170 mg/kg p.o.; for change in vivo at 250 mg/kg: 250 mg/kg p.o.; for change in vivo at 375 mg/kg: 375 mg/kg p.o.
Excerpt: 2.2--Action on the pentobarbital hypnosis time in the mouse
The hypnosis time of each mouse is counted in minutes from the moment when the animal may be placed without resistance on its back until that when it spontaneously gets back on its feet.

[3] = system: convulsant effects of strychnine; assay: Action against the convulsant effects of strychnine in the mouse; conditions: 30 minutes before strychnine 1.5 mg/kg s.c.
Method: (§1) 2.3--Test on the action against the convulsant effects of electric shock and of strychnine in the mouse
(§2) 30 minutes after administration of the compounds to groups of 10 animals, there is investigated the protection induced against:
convulsive crisis and death provoked by injection of strychnine at a limiting lethal dose of 1.5 mg/kg s.c.
(§3) The results are expressed as a percentage of protection based on a control group which have only received the administration vehicle for the compounds.

[4] = Acute toxicity for oral administration in mice; conditions: mouse, in vivo, suspension in 10% gum arabic
Method: (§4) 1--ACUTE TOXICITY FOR ORAL ADMINISTRATION IN MICE
(§5) The compounds are administered orally in increasing doses in suspension in a 10% gum arabic solution to groups of 5 .female. mice of mean weight 25 g. The 50% lethal doses (LD 50) are calculated by the method of KARBER and BEHRENS (Arch. Exp. Path. Pharmakol. 1935, 177, 379-388).
(§6) The LD 50's found are summarised in Table IV below and indicate that the tested compounds have low toxicity.

[5] = system: convulsant effects of electric shock; assay: Action against the convulsant effects of electric shock in the mouse; conditions: po, 0.5 h, 30 minutes before shock, 13 to 16 mA for 0.1 sec, read-out: Percentage protection against the convulsant effects of the electric shock; for responders at 500 mg/kg: 500 mg/kg p.o.
Method: as §1, §2
tonic crisis (extension of rear feet) provoked by supramaximal transcranial electric stimulation (13 to 16 mA for 0.1 sec).
as §3

mice = assay: Acute toxicity for oral administration in mice; conditions: suspension in 10% gum arabic
Method: as §4, §5, §6

SMILES: COc1cc(NC(=O)N2CCN(C)CC2)cc(OC)c1OC [compound 759]
- change in vivo at 400 mg/kg [1]: -45%
- change in vivo at 400 mg/kg [2]: 22%
- Percentage protection against the convulsant effects of strychnine ([3]; 400 mg/kg p.o.): 55%
- LD50 ([4]; po): 4000 mg/kg

SMILES: COc1cc(NC(=O)N2CCSCC2)cc(OC)c1OC [compound 804]
- change in vivo at 500 mg/kg [1]: -24%
- change in vivo at 500 mg/kg [2]: 120%
- LD50 ([4]; po): > 5000 mg/kg

SMILES: CCN(CC)C(=O)Nc1cc(OC)c(OC)c(OC)c1 [compound 809]
- responders at 300 mg/kg ([5]; 300 mg/kg p.o.): 80%
- change in vivo at 300 mg/kg ([1]; 300 mg/kg p.o.): -78%
- change in vivo at 300 mg/kg ([2]; 300 mg/kg p.o.): 157%
- LD50 ([4]; po): 3000 mg/kg

SMILES: COc1cc(NC(=O)N2CC=CCC2)cc(OC)c1OC [compound 819]
- responders at 500 mg/kg [5]: 40%
- change in vivo at 500 mg/kg [1]: -18%
- Percentage protection against the convulsant effects of strychnine ([3]; 500 mg/kg p.o.): 70%
- LD50 ([4]; po): 5000 mg/kg

SMILES: COc1cc(NCC(=O)N2CCN(C)CC2)cc(OC)c1OC [compound 786]
- change in vivo at 170 mg/kg [1]: -20%
- change in vivo at 170 mg/kg [2]: 172%
- LD50 ([4]; po): 1700 mg/kg

SMILES: COc1cc(NC(=O)N2CC(C)OC(C)C2)cc(OC)c1OC (stereo not shown) [compound 788]
- change in vivo at 135 mg/kg ([1]; 135 mg/kg p.o.): -34%
- LD50 ([4]; po): 1350 mg/kg

SMILES: COc1cc(NC(=O)N(C)C)cc(OC)c1OC [compound 775]
- change in vivo at 170 mg/kg [1]: -40%
- change in vivo at 170 mg/kg [2]: 149%
- Percentage protection against the convulsant effects of strychnine ([3]; 170 mg/kg p.o.): 33%
- LD50 ([4]; po): 1700 mg/kg

SMILES: COc1cc(NC(=O)NN2CCOCC2)cc(OC)c1OC [compound 807]
- change in vivo at 250 mg/kg [1]: -33%
- change in vivo at 250 mg/kg [2]: 98%
- LD50 ([4]; po): 2500 mg/kg

SMILES: COc1cc(NC(=O)N2CCOCC2)cc(OC)c1OC [compound 733]
- responders at 400 mg/kg ([5]; 400 mg/kg p.o.): 30%
- change in vivo at 400 mg/kg [1]: -74%
- change in vivo at 400 mg/kg [2]: 164%
- Percentage protection against the convulsant effects of strychnine ([3]; 400 mg/kg p.o.): 100%
- LD50 ([4]; po): 4000 mg/kg

SMILES: COc1cc(NC(=O)N2CCCCC2)cc(OC)c1OC [compound 776]
- change in vivo at 375 mg/kg [1]: -48%
- change in vivo at 375 mg/kg [2]: 130%
- Percentage protection against the convulsant effects of strychnine ([3]; 375 mg/kg p.o.): 44%
- LD50 ([4]; po): 3750 mg/kg

SMILES: COc1cc(NC(=O)CCN2CCOCC2)cc(OC)c1OC [compound 817]
- responders at 500 mg/kg [5]: 40%
- change in vivo at 500 mg/kg [1]: -17%
- change in vivo at 500 mg/kg [2]: 300%
- LD50 ([4]; po): 5000 mg/kg

SMILES: COc1cc(NC(=O)CN2CCOCC2)cc(OC)c1OC [compound 787]
- change in vivo at 250 mg/kg [1]: -84%
- change in vivo at 250 mg/kg [2]: 141%
- LD50 ([4]; po): 2500 mg/kg

SMILES: COc1cc(OC(=O)N2CCOCC2)cc(OC)c1OC [compound 754]
- responders at 500 mg/kg [5]: 90%
- change in vivo at 500 mg/kg [1]: -41%
- change in vivo at 500 mg/kg [2]: 178%
- Percentage protection against the convulsant effects of strychnine ([3]; 500 mg/kg p.o.): 100%
- LD50 [4]: 5000 mg/kg

SMILES: COc1cc(NC(=O)CN2CCOCC2)cc(OC)c1OC [compound 833]
- LD50 (mice): 3000 mg/kg

SMILES: COc1cc(NC(=O)N2CCCC2)cc(OC)c1OC [compound 810]
- responders at 375 mg/kg ([5]; 375 mg/kg p.o.): 70%
- change in vivo at 375 mg/kg [1]: -38%
- change in vivo at 375 mg/kg [2]: 148%
- LD50 ([4]; po): 3750 mg/kg

SMILES: COc1cc(CNC(=O)Nc2cc(OC)c(OC)c(OC)c2)cc(OC)c1OC [compound 798]
- responders at 500 mg/kg [5]: 40%
- change in vivo at 500 mg/kg [1]: -20%
- change in vivo at 500 mg/kg [2]: 145%
- LD50 ([4]; po): > 5000 mg/kg

SMILES: COc1cc(NC(=O)N(C)C2CCCC2)cc(OC)c1OC [compound 801]
- responders at 250 mg/kg ([5]; 250 mg/kg p.o.): 37%
- change in vivo at 250 mg/kg [1]: -29%
- change in vivo at 250 mg/kg [2]: 70%
- Percentage protection against the convulsant effects of strychnine ([3]; 250 mg/kg p.o.): 100%
- LD50 ([4]; po): 2500 mg/kg

SMILES: COc1cc(NS(=O)(=O)N2CCOCC2)cc(OC)c1OC [compound 791]
- change in vivo at 500 mg/kg [1]: -53%
- change in vivo at 500 mg/kg [2]: 200%
- LD50 ([4]; po): > 5000 mg/kg

SMILES: C=CCN(C(=O)Nc1cc(OC)c(OC)c(OC)c1)C1CCCCC1 [compound 811]
- LD50 ([4]; po): 5000 mg/kg

SMILES: COc1cc(NC(=O)N2CCCO2)cc(OC)c1OC [compound 820]
- LD50 ([4]; po): 1250 mg/kg

SMILES: COc1cc(NC(=O)OCCN2CCOCC2)cc(OC)c1OC [compound 818]
- change in vivo at 350 mg/kg ([1]; 350 mg/kg p.o.): -33%
- change in vivo at 350 mg/kg ([2]; 350 mg/kg p.o.): 180%
- LD50 [4]: 3500 mg/kg
